Literature values, collected in patent US20210059976A1, “ORAL PHARMACEUTICAL FORMULATION COMPRISING CANNABINOIDS AND POLOXAMER” (GW Research Limited, priority 2018, published 2021).
Like-named read-outs stand apart in the source and are kept apart here.

What was measured:
[1] = system: acute experimental models of generalized seizure
[2] = 20 mg oral administration, man

C=C(C)[C@@H]1CCC(C)=C[C@H]1c1c(O)cc(CCCCC)cc1O [CBD, cannabidiol]
Oral bioavailability: low and unpredictable
efficacy in acute experimental models of generalized seizure ([1]; 100 mg/kg, but not 1 or 10 mg/kg): efficacious

CCCCCc1cc(O)c2c(c1)OC(C)(C)[C@@H]1CCC(C)=C[C@@H]21 [THC, tetrahydrocannabinol]
efficacy in acute experimental models of generalized seizure ([1]; between 1.25 and 10 mg/kg): efficacious
somnolence [2]: induces somnolence
